Test results from patent US20120065267A1, “COMPOSITIONS INCLUDING 3,5-L-T2 AND METHODS OF USE THEREOF” (priority 2010, published 2012).
Values joined by “and” are separate entries in the source; they are usually repeats but may differ in a detail not shown here. Equal entries are not always repeated.

Tested on: C57, LDLr+/− and LDLr0 mice
Assay: Serum cholesterol in mice on Western Diet given daily oral T2
Type: in vivo
Parameters: Cholesterol / Cholesterol (Ave): unit not given here
Conditions: for lowered cholesterol, average: vs vehicle; for Cholesterol (Ave): group average; for Cholesterol: individual animal
Procedure: This corresponds to a dosage for an 80 kg human of about 20-200 mg/day, or a low dose of about 0.2-0.3 mg/kg of body weight to a high dose of about 2-3 mg/kg of body weight. One will appreciate, however, that some subjects (e.g., subjects having very low LDL receptor function) may receive higher doses, depending on need. likewise, some subjects may receive lower doses, which again depends on need. Mice in the study were fed a standard lab chow referred to as the “Western Diet.” The overall level of fat and the saturated nature of the fat are representative diets typical in the industrialized west that are linked to risk of cardiovascular disease in humans. The formula is used primarily with genetically manipulated rodent models that are susceptible to high cholesterol and cardiovascular disease. The diet may also be useful in diet-induced obesity, diabetes, and metabolic syndrome models. High cholesterol, obesity, and diabetes are each associated increased risk for cardiovascular disease. The composition of the Western Diet is shown below. C57 is a wild-type strain, LDLr+/− are a strain carrying one functional copy of the LDLr gene, and the LDLr0 animals are total LDLr knockouts. The LDLr gene encodes for the LDL receptor protein, which is responsible for scavenging LDL with bound cholesterol from the blood and transporting it into cells. Both heterozygous and homozygous LDLr knockout animals develop very high serum cholesterol levels and are considered to be a good model for heterozygous and homozygous familial hypercholesterolemia in humans. […] LDLr knockout animals have zero LDL receptor function.

Compound: N[C@@H](Cc1cc(I)c(Oc2ccc(O)cc2)c(I)c1)C(=O)O [T2, (2S)-2-amino-3-[4-(4-hydroxyphenoxy)-3,5-diiodophenyl]propanoic acid]
- lowered cholesterol, average (C57 animals, high dose T2 2.5 mg/kg daily oral): about 67%
- lowered cholesterol, average (C57 animals, low dose T2 0.25 mg/kg daily oral): about 38%
- Cholesterol (Ave) (C57 mice, 1 Week High Dose, T2 2.5 mg/kg daily oral): 60.8
- Cholesterol (C57 mice, 1 Week High Dose, T2 2.5 mg/kg daily oral, 2.5 mg/kg): 41.312 and 53.718 and 75.711 and 62.741 and 70.636
- Cholesterol (Ave) (C57 mice, 1 Week Low Dose, T2 0.25 mg/kg daily oral): 113.5
- Cholesterol (C57 mice, 1 Week Low Dose, T2 0.25 mg/kg daily oral, 0.25 mg/kg): 96.130 and 114.249 and 104.366 and 114.798 and 137.858
- Cholesterol (Ave) (LDLr0 mice (first group), 1 Week High Dose, T2 2.5 mg/kg daily oral): 320.4
- Cholesterol (LDLr0 mice (first group), 1 Week High Dose, T2 2.5 mg/kg daily oral, 2.5 mg/kg): 303.529 and 337.364
- Cholesterol (Ave) (LDLr0 mice (first group), 1 Week Low Dose, T2 0.25 mg/kg daily oral): 823.5
- Cholesterol (LDLr0 mice (first group), 1 Week Low Dose, T2 0.25 mg/kg daily oral, 0.25 mg/kg): 1063.848 and 593.252 and 813.532
- Cholesterol (Ave) (LDLr0 mice (second group), 1 Week Low Dose, T2 0.25 mg/kg daily oral): 930.5
- Cholesterol (LDLr0 mice (second group), 1 Week Low Dose, T2 0.25 mg/kg daily oral, 0.25 mg/kg): 611.760 and 750.720 and 813.250 and 1112.010 and 1167.590 and 438.070 and 1000.840 and 1549.720
- Cholesterol (Ave) (LDLr0 mice (second group), 2 Week Low Dose, T2 0.25 mg/kg daily oral): 1026.8
- Cholesterol (LDLr0 mice (second group), 2 Week Low Dose, T2 0.25 mg/kg daily oral, 0.25 mg/kg): 996.905 and 1035.325 and 944.755 and 988.670 and 1092.965 and 524.830 and 1189.025 and 1441.530
- lowered cholesterol, average (LDLr knockout animals, high dose T2 2.5 mg/kg daily oral): about 80%
- lowered cholesterol, average (LDLr knockout animals, low dose T2 0.25 mg/kg daily oral): about 46%
- lowered cholesterol, average (LDLr+/− animals, high dose T2 2.5 mg/kg daily oral): about 67%
- lowered cholesterol, average (LDLr+/− animals, low dose T2 0.25 mg/kg daily oral): about 26%
- Cholesterol (Ave) (LDLr+/− mice, 1 Week High Dose, T2 2.5 mg/kg daily oral): 93.8
- Cholesterol (LDLr+/− mice, 1 Week High Dose, T2 2.5 mg/kg daily oral, 2.5 mg/kg): 84.169 and 99.395 and 103.342 and 102.778 and 66.124 and 107.29
- Cholesterol (Ave) (LDLr+/− mice, 1 Week Low Dose, T2 0.25 mg/kg daily oral): 188.8
- Cholesterol (LDLr+/− mice, 1 Week Low Dose, T2 0.25 mg/kg daily oral, 0.25 mg/kg): 185.075 and 229.548 and 196.605 and 160.917 and 172.447 and 188.370
